Assay results from patent publication US11319304B2, “Pyridine quinoline compounds as MGLUR4 allosteric potentiators, compositions, and methods of treating neurological dysfunction” (Vanderbilt University, priority 2017, dated 2022).

These molecules were tested against mGluR4 (Homo sapiens, UniProt Q14833) (assay: mGlu4 PAM potentiation assay, CHO cells transfected with human mGluR4, Ca2+-sensitive dye fluorescence).
Type: cell-based
Procedure: The disclosed compounds and compositions can be evaluated for their ability to act as a potentiator of metabotropic glutamate receptor activity, in particular mGluR4 activity, by any suitable known methodology known in the art. For example, Chinese Hamster Ovary (CHO) cells transfected with human mGluR4 or HEK cells co-transfected with rat mGluR4 and the G-protein regulated Inwardly Rectifying Potassium channel (GIRK) were plated in clear bottom, assay plates for assay in a Hamamatsu FDSS Fluorometric Plate Reader. The cells were loaded with either a Ca2+-sensitive fluorescent dye or the thallium responsive dye and the plates were washed and placed into a suitable kinetic plate reader. For human mGluR4 assays, a fluorescence baseline was established for 3-5 seconds, the disclosed compounds were then added to the cells, and the response in cells was measured. Approximately two and a half minutes later, a concentration of mGluR4 orthosteric agonist (e.g. glutamate, L-AP4, or L-SOP) eliciting approximately 20% (EC20) of the maximal agonist response was added to the cells, and the response was measured. Two minutes later, a concentration of mGluR4 agonist (e.g. glutamate, L-AP4, or L-SOP) eliciting 80% (EC80) of the maximal agonist response was added to the cells, and the response was measured. For rat mGluR4/GIRK experiments, a baseline was established for approximately five seconds, disclosed compounds were added, and either an EC20 or EC80 concentration of agonist was added approximately two and one half minutes later. Potentiation or antagonism of the agonist response of mGluR4 by the disclosed compounds was observed as an increase or decrease in response to the EC20 concentration of agonist in the presence of compound compared to the response to agonist in the absence of compound. Similarly, potentiation or antagonism of the agonist response of mGluR4 by the disclosed Compounds was observed as an increase or decrease in response to the EC80 concentration of agonist in the presence of compound compared to the response to agonist in the absence of compound.
The above described assay operated in two modes. In the first mode, a range of concentrations of the disclosed compounds are added to cells, followed by a single fixed concentration of agonist. If the compound acts as a potentiatior, an EC50 value for potentiation and a maximum extent of potentiation by the compound at this concentration of agonist is determined by non-linear curve fitting. If the compound acts as an antagonist, an IC50 value is determined by non-linear curve fitting. In the second mode, several fixed concentrations of the disclosed compounds are added to various wells on a plate, followed by a range in concentrations of agonist for each concentration of disclosed compound. The EC50 values for the agonist at each concentration of compound are determined by non-linear curve fitting. A decrease in the EC50 value of the agonist with increasing concentrations of the sample compound (a leftward shift of the agonist concentration-response curve) is an indication of the degree of mGluR4 potentiation at a given concentration of the sample compound. A decrease in the maximal response of the agonist with increasing concentrations of the sample compounds, with or without a rightward shift in agonist potency, is an indication of the degree of antagonism at mGluR4. The second mode also indicates whether the sample compounds also affect the maximum response to mGluR4 to agonists.

mGluR4, sequence (Q14833 33-912 limits assumed): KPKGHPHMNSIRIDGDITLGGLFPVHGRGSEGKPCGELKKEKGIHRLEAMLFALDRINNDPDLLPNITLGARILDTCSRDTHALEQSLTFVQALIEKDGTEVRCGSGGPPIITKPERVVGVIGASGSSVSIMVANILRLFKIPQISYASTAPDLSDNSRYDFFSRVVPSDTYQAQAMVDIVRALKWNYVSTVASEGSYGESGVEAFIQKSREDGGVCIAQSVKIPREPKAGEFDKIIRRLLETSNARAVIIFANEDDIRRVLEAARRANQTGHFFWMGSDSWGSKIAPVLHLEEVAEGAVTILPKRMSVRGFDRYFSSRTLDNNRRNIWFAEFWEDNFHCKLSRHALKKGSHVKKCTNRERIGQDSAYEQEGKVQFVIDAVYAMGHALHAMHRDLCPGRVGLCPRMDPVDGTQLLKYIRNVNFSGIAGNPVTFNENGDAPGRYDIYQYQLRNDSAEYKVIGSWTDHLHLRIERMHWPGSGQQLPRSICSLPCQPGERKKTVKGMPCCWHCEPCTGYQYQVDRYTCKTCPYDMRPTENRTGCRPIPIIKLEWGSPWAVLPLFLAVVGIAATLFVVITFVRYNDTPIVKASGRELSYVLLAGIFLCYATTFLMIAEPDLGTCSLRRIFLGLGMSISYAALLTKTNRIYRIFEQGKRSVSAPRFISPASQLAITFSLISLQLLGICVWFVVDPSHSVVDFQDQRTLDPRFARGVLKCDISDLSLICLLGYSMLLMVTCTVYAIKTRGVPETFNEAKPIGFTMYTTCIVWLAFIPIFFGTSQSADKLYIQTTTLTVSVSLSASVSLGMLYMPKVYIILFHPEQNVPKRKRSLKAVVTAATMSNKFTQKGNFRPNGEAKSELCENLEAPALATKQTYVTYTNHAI

SMILES	EC50
Nc1cccnc1C(=O)Nc1cc(F)c2c(OCC3CCOC3)nccc2c1 (stereo not drawn) [Compound 79]	48.2 nM
O=C(Nc1cc(F)c2c(OCC3CCOC3)nccc2c1)c1ncccc1F (stereo not drawn) [Compound 80]	312 nM
O=C(Nc1cc(F)c2c(OCC3CCOC3)nccc2c1)c1cccc(F)n1 (stereo not drawn) [Compound 82]	129 nM
O=C(Nc1cc(F)c2c(OCC3CCOC3)nccc2c1)c1ncc(F)cc1F (stereo not drawn) [Compound 83]	154 nM
O=C(Nc1cc(F)c2c(OCC3CCOC3)nccc2c1)c1nc(F)ccc1F (stereo not drawn) [Compound 84]	172 nM
O=C(Nc1ccc2c(OCC3CCOC3)nccc2c1)c1ccc(Cl)cn1 (stereo not drawn) [Compound 85]	615 nM
O=C(Nc1ccc2c(OCC3CCOC3)nccc2c1)c1ncc(F)cc1Cl (stereo not drawn) [Compound 88]	910 nM
O=C(Nc1ccc2c(OCC3CCOC3)nccc2c1)c1nc(Cl)ccc1F (stereo not drawn) [Compound 89]	822 nM
Nc1cccnc1C(=O)Nc1cc(F)c2c(OCC3COCCO3)nccc2c1 (stereo not drawn) [Compound 91]	94 nM
O=C(Nc1cc(F)c2c(OCC3COCCO3)nccc2c1)c1ncccc1F (stereo not drawn) [Compound 92]	152 nM
O=C(Nc1cc(F)c2c(OCC3COCCO3)nccc2c1)c1ccc(F)cn1 (stereo not drawn) [Compound 93]	302 nM
Nc1cccnc1C(=O)Nc1cc(F)c2c(OCC3CCOCC3)nccc2c1 [Compound 95]	106 nM
O=C(Nc1cc(F)c2c(OCC3CCOCC3)nccc2c1)c1ncccc1F [Compound 96]	102 nM
Nc1nccnc1C(=O)Nc1ccc2c(OCC3CCOC3)nccc2c1 (stereo not drawn) [Compound 99]	83.1 nM
CC1(C)CC(Oc2nccc3cc(NC(=O)c4ccccn4)cc(F)c23)CCO1 (stereo not drawn) [Compound 100]	70.8 nM
CC1(C)CC(Oc2nccc3cc(NC(=O)c4ncccc4F)cc(F)c23)CCO1 (stereo not drawn) [Compound 101]	120 nM
CC1(C)CC(Oc2nccc3cc(NC(=O)c4ccc(F)cn4)cc(F)c23)CCO1 (stereo not drawn) [Compound 102]	142 nM
CC1(C)CC(Oc2nccc3cc(NC(=O)c4ncc(F)cc4F)cc(F)c23)CCO1 (stereo not drawn) [Compound 103]	76.6 nM
Cc1ccc(C(=O)Nc2ccc3c(OCC4CCOCC4)nccc3c2)nc1 [Compound 104]	539 nM
O=C(Nc1ccc2c(OCC3CCOCC3)nccc2c1)c1ccc(F)cn1 [Compound 105]	34.1 nM
O=C(Nc1ccc2c(OCC3CCOC3)nccc2c1)c1ccc(O)cn1 (stereo not drawn) [Compound 108]	65.9 nM
Cc1ccoc1C(=O)Nc1ccc2c(OCC3CCOCC3)nccc2c1 [Compound 111]	122 nM
Nc1cccnc1C(=O)Nc1ccc2c(Oc3ccncc3)nccc2c1 [Compound 112]	394 nM
O=C(Nc1ccc2c(Oc3ccncc3)nccc2c1)c1ccc(F)cn1 [Compound 113]	608 nM
Nc1nccnc1C(=O)Nc1ccc2c(OCC3COCCO3)nccc2c1 (stereo not drawn) [Compound 117]	334 nM
O=C(Nc1ccc2c(OCC3COCCO3)nccc2c1)c1cccc(F)n1 (stereo not drawn) [Compound 118]	216 nM
O=C(Nc1ccc2c(OCC3COCCO3)nccc2c1)c1ccc(F)cn1 (stereo not drawn) [Compound 119]	285 nM
O=C(Nc1cnc2c(OCC3CCOCC3)nccc2c1)c1ccccn1 [Compound 120]	333 nM
Nc1cccnc1C(=O)Nc1cnc2c(OCC3CCOCC3)nccc2c1 [Compound 121]	116 nM

Further molecules by falling EC50, results first:

EC50	SMILES
978 nM	O=C(Nc1cc(F)c2c(OCC3CCOCC3)nccc2c1)c1ncccc1C(F)(F)F [Compound 98]
707 nM	Cc1ccoc1C(=O)Nc1ccc2c(OCC3CCOC3)nccc2c1 (stereo not drawn) [Compound 110]
619 nM	O=C(Nc1ccc2c(OCC3CCOC3)nccc2c1)c1cccc(Cl)n1 (stereo not drawn) [Compound 86]
454 nM	O=C(Nc1cnc2c(OCC3CCOCC3)nccc2c1)c1ccc(F)cn1 [Compound 122]
228 nM	O=C(Nc1ccc2c(OCc3cccnc3)nccc2c1)c1ccc(F)cn1 [Compound 114]
226 nM	O=C(Nc1ccc2c(OCC3CCOC3)nccc2c1)c1ccncn1 (stereo not drawn) [Compound 107]
183 nM	O=C(Nc1ccc2c(OCC3CCOC3)nccc2c1)c1cccc(F)n1 (stereo not drawn) [Compound 87]
127 nM	CC1(C)CC(Oc2nccc3cc(NC(=O)c4ncccc4N)cc(F)c23)CCO1 (stereo not drawn) [Compound 106]
116 nM	O=C(Nc1cc(F)c2c(OCC3COCCO3)nccc2c1)c1ccccn1 (stereo not drawn) [Compound 90]
100 nM	O=C(Nc1ccc2c(OCc3ccncc3)nccc2c1)c1ccc(F)cn1 [Compound 115]
91.5 nM	O=C(Nc1ccc2c(OCC3CCOCC3)nccc2c1)c1cccc(F)n1 [Compound 109]
81.6 nM	O=C(Nc1cc(F)c2c(OCC3CCOC3)nccc2c1)c1ccc(F)cn1 (stereo not drawn) [Compound 81]
63.7 nM	Nc1cccnc1C(=O)Nc1ccc2c(OCC3COCCO3)nccc2c1 (stereo not drawn) [Compound 116]
52.1 nM	O=C(Nc1cc(F)c2c(OCC3CCOCC3)nccc2c1)c1ccc(F)cn1 [Compound 97]
39.3 nM	O=C(Nc1cc(F)c2c(OCC3CCOC3)nccc2c1)c1ccccn1 (stereo not drawn) [Compound 78]
37.7 nM	O=C(Nc1cc(F)c2c(OCC3CCOCC3)nccc2c1)c1ccccn1 [Compound 94]
